The results in this text go back to ChEMBL document CHEMBL1201862, “PubChem BioAssay data set” (2004).

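Assay format: 96-well plates, 48-hour exposure. Here, GI50 denotes the concentration required for 50% inhibition of growth.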 Activity calls are given as the source filed them. Rule as the data show it: active = GI50 up to about 1.1 µM and inactive = higher.

Holding throughout (test): DTP human tumour cell line panel, 48 h
Test [1] relates to MOLT-4.
Test [2] has as its system SW-620.
Test [3] relates to SN12C.
The subject of test [4] is SF-295.
The test system of test [5] is Hs-578T.
Test [6] has as its system NCI-H226.
The subject of test [7] is NCI/ADR-RES.
The subject of test [8] is RPMI-8226.
Test [9] concerns HT-29.
Test [10] deals with K562.
Test [11] concerns M14.
In test [12] the test system is COLO 205.
Test [13] deals with A549.
Test [14] has as its system NCI-H460.
The test system of test [15] is OVCAR-8.
In test [16] the test system is KM12.
Test [17] relates to 786-0.
Test [18] relates to SK-OV-3.
In test [19] the test system is SF-539.

For orientation: GI50 means the concentration that inhibits growth by half. For `CC(=O)OCC1OC(OC(C)=O)C(Nc2ncc(-c3ccc(C)cc3)s2)C(OC(C)=O)C1OC(C)=O` (stereo not given), the GI50 in test [1] was 11 µM (inactive); in test [2], 13.7 µM (inactive); in test [3] it was 18.2 µM (inactive); in [4], 22.9 µM (inactive); in test [5], 22.5 µM (inactive); in test [6] it was 26.4 µM (inactive). Besides, the GI50 is 30.6 µM (inactive) in [7]; 12.9 µM (inactive) in test [8]; 21.2 µM (inactive) in [9]; 15.7 µM (inactive) in test [10]; 18.1 µM (inactive) in test [11]; 17.7 µM (inactive) in test [12]. The GI50 in [13] is 18.6 µM (inactive); in test [14] it was 18.5 µM (inactive); in [15] it was 24 µM (inactive); in test [16] it was > 10 µM (inactive); in test [17], 16.6 µM (inactive); in test [18], 44.1 µM (inactive). Also, in test [19], the GI50 was 20.7 µM (inactive).

As for `COc1cc2c(c(OC)c1OC)C(=O)[C@@H](O)[C@H]2NC(N)=O`, the GI50 in test [1], in test [2], in [3], in test [4], in test [5] and in [6] was > 100 µM (inactive) in each case. The GI50 in test [7], in [8], in [9], in test [10], in test [11] and in test [12] was > 100 µM (inactive) in each case. Also, the GI50 in [13], in test [14], in test [15], in [16], in test [17] and in test [19] was > 100 µM (inactive) throughout.

Regarding `CCOC(=O)c1ccc(/N=c2\oc3ccc(OC)cc3cc2-c2nc3ccccc3[nH]2)cc1`, the GI50 in [1] was > 100 µM (inactive); in [2] it was 8.13 µM (inactive); in [3], > 100 µM (inactive); in [4] it was 62.8 µM (inactive); in test [5], 79.8 µM (inactive); in [6], 0.516 µM (active). Moreover, the GI50 in test [7] is > 100 µM (inactive); in test [8], > 100 µM (inactive); in [9], > 100 µM (inactive); in [10], 72.8 µM (inactive); in test [11], 65.3 µM (inactive); in [12] it was 73.5 µM (inactive). For the same compound, the GI50 is 51.2 µM (inactive) in [13]; > 100 µM (inactive) in [14]; 4.21 µM (inactive) in test [15]; > 100 µM (inactive) in [16]; > 100 µM (inactive) in [17]; 73.8 µM (inactive) in test [18]. Further, the GI50 in [19] is 1.99 µM (inactive).

Turning to `O=C(/C=C/c1ccc(F)c(F)c1)OCCc1ccccc1`, the GI50 was 18 µM (inactive) in [1]; > 100 µM (inactive) in test [2]; > 100 µM (inactive) in [3]; > 100 µM (inactive) in test [4]; > 100 µM (inactive) in [5]; > 100 µM (inactive) in test [6]. Also, the GI50 in test [7] was > 100 µM (inactive); in [8], 77.6 µM (inactive); in test [9], 34.5 µM (inactive); in [10], 51.3 µM (inactive); in test [11], > 100 µM (inactive); in test [12], > 100 µM (inactive). Also, the GI50 in [13], in [14], in test [15], in [16], in test [17] and in test [18] was > 100 µM (inactive) in each case. Also, the GI50 in test [19] is > 100 µM (inactive).
